# Test results published in ChEMBL document CHEMBL5226291, “The race to treat COVID-19: Potential therapeutic agents for the prevention and treatment of SARS-CoV-2” (Eur J Med Chem, 2021).
# Square brackets hold non-standard residues; d marks the D form. Peptide text beside a SMILES is read from it. * marks the point of attachment. ξ: configuration not given here. Decanoyl = CCCCCCCCCC(=O)*; ξF = NC(Cc1ccccc1)C(=O)O; Cbz = O=C(OCc1ccccc1)*; CH2Cl = ClC*
# How the values were obtained:
# [1] = biological target: Disintegrin and metalloproteinase domain-containing protein 17 (Mus musculus, UniProt Q9Z0F8); assay: Inhibition of mouse ADAM17 expressed in HEK293 cells overexpressed with ACE2 assessed as inhibition of ACE2 shedding incubated for 65 mins in presence of PMA by immunoblotting assay; format: cell-based
# Chain of Disintegrin and metalloproteinase domain-containing protein 17 (Q9Z0F8 whole entry, the tested form may be a part): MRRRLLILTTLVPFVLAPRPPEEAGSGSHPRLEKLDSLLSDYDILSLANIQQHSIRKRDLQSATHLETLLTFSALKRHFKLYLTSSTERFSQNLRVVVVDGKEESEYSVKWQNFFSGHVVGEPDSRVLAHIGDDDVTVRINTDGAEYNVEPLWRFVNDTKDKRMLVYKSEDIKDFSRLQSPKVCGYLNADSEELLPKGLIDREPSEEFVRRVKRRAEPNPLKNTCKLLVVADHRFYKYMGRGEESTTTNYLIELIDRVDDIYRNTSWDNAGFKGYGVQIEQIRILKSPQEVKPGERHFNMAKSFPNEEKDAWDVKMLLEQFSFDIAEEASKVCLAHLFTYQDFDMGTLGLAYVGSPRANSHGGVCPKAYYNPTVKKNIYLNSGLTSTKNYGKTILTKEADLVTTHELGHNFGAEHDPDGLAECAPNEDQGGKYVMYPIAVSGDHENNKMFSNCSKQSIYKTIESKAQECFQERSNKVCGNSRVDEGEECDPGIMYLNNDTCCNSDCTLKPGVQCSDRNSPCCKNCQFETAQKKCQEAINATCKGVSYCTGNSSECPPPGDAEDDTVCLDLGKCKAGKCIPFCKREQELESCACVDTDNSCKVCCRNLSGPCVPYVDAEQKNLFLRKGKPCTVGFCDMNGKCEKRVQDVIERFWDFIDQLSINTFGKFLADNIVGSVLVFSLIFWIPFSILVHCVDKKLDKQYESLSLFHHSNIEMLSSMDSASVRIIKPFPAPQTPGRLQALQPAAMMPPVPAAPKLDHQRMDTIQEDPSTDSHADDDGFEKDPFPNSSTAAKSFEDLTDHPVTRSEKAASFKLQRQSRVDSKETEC
# SARS-CoV [2] = assay: Antiviral activity against SARS-CoV infected in HEK293T cells assessed as reduction in viral replication incubated for 7 hrs by luciferase assay; format: functional, organism-based; conditions: Severe acute respiratory syndrome-related coronavirus, HEK-293T
# Ebolavirus [3] = assay: Antiviral activity against Ebolavirus infected in HEK293T cells assessed as reduction in viral replication incubated for 7 hrs by luciferase assay; format: functional, organism-based; conditions: Orthoebolavirus, HEK-293T
# Procathepsin L [4] = biological target: T1, Procathepsin L (Homo sapiens, UniProt P07711); assay: Inhibition of human liver Cathepsin L using Z-Phe-Arg-AMC as substrate incubated for 30 mins by fluorometric assay
# T1 sequence (P07711 whole entry): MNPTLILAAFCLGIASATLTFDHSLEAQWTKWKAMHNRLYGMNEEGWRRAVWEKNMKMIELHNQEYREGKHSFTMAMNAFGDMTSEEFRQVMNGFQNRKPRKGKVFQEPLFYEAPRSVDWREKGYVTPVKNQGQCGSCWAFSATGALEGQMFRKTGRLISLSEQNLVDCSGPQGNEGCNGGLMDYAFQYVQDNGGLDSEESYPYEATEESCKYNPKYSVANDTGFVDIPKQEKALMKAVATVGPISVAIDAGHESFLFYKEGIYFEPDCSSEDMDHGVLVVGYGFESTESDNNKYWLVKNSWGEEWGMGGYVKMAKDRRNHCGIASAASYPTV
# SARS-CoV [5] = format: functional, organism-based; conditions: Severe acute respiratory syndrome-related coronavirus, Vero C1008, 48 h
# SARS-CoV-2 [6] = format: functional; conditions: Severe acute respiratory syndrome coronavirus 2, Vero C1008; time 18 hrs; read-out: ED50 (the source's name)
# SARS-CoV-2 [7] = format: functional, organism-based; conditions: Severe acute respiratory syndrome coronavirus 2, Vero C1008, 48 h
# [8] = Cytotoxicity against African green monkey Vero E6 cells by CCK-8 assay; format: toxicity, cell-based, Vero C1008; conditions: chlorocebus sabaeus
# SARS-CoV-2 [9] = format: functional, organism-based; conditions: Severe acute respiratory syndrome coronavirus 2, Vero C1008, 48 h; remark: listed apart in the source
# SARS-CoV [10] = format: functional, organism-based; conditions: Severe acute respiratory syndrome-related coronavirus, BJ01, Vero C1008, 64 h
# [11] = Cytotoxicity against African green monkey Vero E6 cells by MTT assay; format: toxicity, cell-based, Vero C1008; conditions: chlorocebus sabaeus
# [12] = Selectivity index. ratio of CC50 for cytotoxicity against African green monkey Vero E6 cells to EC50 for antiviral activity against wild type SARS-CoV BJ01 infected in Vero E6 cells; format: toxicity, cell-based, Vero C1008; conditions: read-out: Ratio CC50/EC50
# [13] = Cytotoxicity against human HEK293T cells by XTT assay; format: toxicity, cell-based, HEK-293T
# [14] = biological target: Replicase polyprotein 1ab (Severe acute respiratory syndrome coronavirus 2, UniProt P0DTD1); assay: Inhibition of SARS-COV2 main protease using Mca-AVLQ-SGFR-K as substrate by Fluorescence microplate reader assay
# [15] = biological target: Replicase polyprotein 1ab (Severe acute respiratory syndrome coronavirus 2) (UniProt P0DTD1); assay: Inhibition of recombinant SARS-COV2 main protease using Mca-AVLQ-SGFR-Lys-NH2 as substrate at 1 uM by FRET based cleavage assay
# SARS-CoV [16] = format: functional, organism-based; conditions: Severe acute respiratory syndrome-related coronavirus, Vero C1008
# [17] = tested on: Middle East respiratory syndrome-related coronavirus; assay: Antiviral activity against recombinant MERS-CoV pseudovirus infected in Huh-7 cells assessed as inhibition of viral replication measured after 72 hrs by luminometer; format: functional, organism-based; conditions: Huh-7, 72 h
# [18] = Cytotoxicity against human Huh-7 cells incubated for 3 days by XTT assay; format: toxicity, cell-based; conditions: time 3 day
# [19] = Selectivity index. ratio of CC50 for cytotoxicity against human Huh-7 cells to IC50 for antiviral activity against MERS-CoV pseudovirus infected in Huh-7; format: toxicity, cell-based; conditions: read-out: Ratio CC50/IC50
# SARS-CoV-2 [20] = format: functional, organism-based; conditions: Severe acute respiratory syndrome coronavirus 2, Vero C1008, 96 h
# [21] = tested on: Middle East respiratory syndrome-related coronavirus; assay: Antiviral activity against wild type MERS-CoV infected in HEK293T/17 cells assessed as inhibition of viral replication by immunoblotting assay; format: functional, organism-based
# SARS-CoV [22] = assay: Antiviral activity against SARS-CoV infected in HeLa cells expressing human TMPRSS2 assessed as inhibition of viral replication measured after 20 hrs by fluorescence microscopy; format: functional, organism-based; conditions: Severe acute respiratory syndrome-related coronavirus
# SARS-CoV [23] = assay: Antiviral activity against SARS-CoV infected in HeLa cells expressing human TMPRSS2 assessed as inhibition of viral replication at 100 uM measured after 20 hrs by fluorescence microscopy; format: functional; conditions: Severe acute respiratory syndrome-related coronavirus
# SARS-CoV [24] = assay: Antiviral activity against SARS-CoV infected in HeLa cells expressing human TMPRSS2 assessed as inhibition of viral replication at 10 uM measured after 20 hrs in presence of EST by fluorescence microscopy; format: functional; conditions: Severe acute respiratory syndrome-related coronavirus
# SARS-CoV [25] = assay: Antiviral activity against SARS-CoV infected in HEK293 cells expressing human ACE2 assessed as inhibition of viral replication measured after 40 hrs by luciferase assay; format: functional, organism-based; conditions: Severe acute respiratory syndrome-related coronavirus, HEK293, 40 h
# [26] = Antiviral activity against Human coronavirus NL63 infected in HEK293T cells expressing human ACE2 assessed as inhibition of viral replication incubated for 2 days by Dual-Glo luciferase assay; format: functional, cell-based; conditions: Human coronavirus NL63, HEK-293T, 48 h
# [27] = tested on: Middle East respiratory syndrome-related coronavirus; assay: Antiviral activity against recombinant MERS-CoV pseudovirus infected in Vero cells assessed as inhibition of viral replication incubated for 2 days by Dual-Glo luciferase assay; format: functional, organism-based; conditions: 48 h
# [28] = Cytotoxicity against human HEK293T cells; format: toxicity, cell-based, HEK-293T
# SARS-CoV [29] = format: functional, organism-based; conditions: Severe acute respiratory syndrome-related coronavirus, HEK-293T, 48 h
# Procathepsin L [30] = biological target: T1, Procathepsin L; assay: Inhibition of recombinant Cathepsin L (unknown origin) using Z-Phe-Arg-AMC as substrate by fluorometric assay
# Zika virus = assay: Antiviral activity against Zika virus MR766 infected in Vero cells assessed as reduction in viral replication by plaque reduction assay; format: functional, organism-based
# Ebolavirus [31] = format: functional, organism-based; conditions: Orthoebolavirus, Vero C1008, 120 h
smiles,measurement,setting,value
CC(C)C[C@H](CC(=O)NO)C(=O)N[C@@H](Cc1ccc2ccccc2c1)C(=O)N[C@@H](C)C(N)=O,IC50,[1],0.1 µM
CC(C)(C)OC(=O)N[C@@H](Cc1c[nH]c2ccccc12)C(=O)NNC(=O)OCC(=O)N1CCCc2ccccc21,IC50,SARS-CoV [2],273 µM
same,IC50,Ebolavirus [3],193 µM
same,IC50,Procathepsin L [4],6.9 µM
CCC(CC)COC(=O)[C@H](C)N[P@](=O)(OC[C@H]1O[C@@](C#N)(c2ccc3c(N)ncnn23)[C@H](O)[C@@H]1O)Oc1ccccc1,EC50,SARS-CoV [5],0.069 µM
CCN(CC)CCCC(C)Nc1ccnc2cc(Cl)ccc12 (stereo unspecified) [CHLOROQUINE],EC50,SARS-CoV-2 [6],4.4 µM
same,EC50,SARS-CoV-2 [7],1.13 µM
same,CC50,[8],> 100 µM
CCN(CCO)CCCC(C)Nc1ccnc2cc(Cl)ccc12 (stereo unspecified) [HYDROXYCHLOROQUINE],EC50,SARS-CoV-2 [9],0.72 µM
Nc1nc2c(ncn2CCC(CO)CO)c(=O)[nH]1 [PENCICLOVIR],CC50,[8],> 400 µM
same,EC50,SARS-CoV [5],96 µM
O=C(OC[C@H]1O[C@@H](OC(=O)c2cc(O)c(O)c(O)c2)[C@H](OC(=O)c2cc(O)c(O)c(O)c2)[C@H](OC(=O)c2cc(O)c(O)c(O)c2)[C@@H]1O)c1cc(O)c(O)c(O)c1,EC50,SARS-CoV [10],4.5 µM
same,CC50,[11],1.08 µM
same,selectivity ratio,[12],240
CN1CCN(c2ccc(CNC(=O)c3ccno3)cc2)CC1,CC50,[13],> 100 µM
Cn1sc(=O)n(Cc2ccccc2)c1=O,IC50,[14],2.5 µM
O=C[C@H](C[C@@H]1CCNC1=O)NC(=O)[C@H](Cc1cccc(F)c1)NC(=O)c1cc2ccccc2[nH]1,CC50,[8],> 100 µM
same,inhibition,[15],86%
COc1ccc(S(=O)(=O)O)cc1/N=N/c1c(S(=O)(=O)O)cc2cc(Nc3nc(Nc4ccccc4)nc(Nc4cc(C)c(/N=N/c5cc(S(=O)(=O)O)cc6cc(S(=O)(=O)O)cc(O)c56)cc4OC)n3)ccc2c1O,IC50,SARS-CoV [16],3.89 µM
same,IC50,[17],0.6 µM
same,CC50 at 72 h,[18],26.9 µM
same,selectivity ratio,[19],45
O=C[C@H](C[C@@H]1CCNC1=O)NC(=O)[C@H](CC1CCCCC1)NC(=O)c1cc2ccccc2[nH]1,CC50,[8],> 100 µM
same,inhibition,[15],100%
O=c1c(O)c(-c2ccc(O)c(O)c2)oc2cc(O)cc(O)c12 [QUERCETIN],CC50,[11],3.32 µM
Cc1cc(C(=O)N[C@@H](C)C(=O)N[C@H](C(=O)N[C@@H](CC(C)C)C(=O)N[C@H](/C=C\C(=O)OCc2ccccc2)C[C@@H]2CCNC2=O)C(C)C)no1,EC50,SARS-CoV-2 [20],16.8 µM
CCCCCCCCCC(=O)N[C@@H](CCCNC(=N)N)C(=O)N[C@H](C(=O)N[C@@H](CCCCN)C(=O)N[C@@H](CCCNC(=N)N)C(=O)CCl)C(C)C (Decanoyl-RVKR-CH2Cl),IC50,[21],75 µM
CN(C)C(=O)COC(=O)Cc1ccc(OC(=O)c2ccc(NC(=N)N)cc2)cc1 [CAMOSTAT],IC50,SARS-CoV [22],10 µM
same,inhibition at 100 µM,SARS-CoV [23],65%
same,inhibition at 10 µM,SARS-CoV [24],> 95%
O=c1cc(-c2ccc(O)c(O)c2)oc2cc(O)cc(O)c12 [LUTEOLIN],EC50,SARS-CoV [10],10.6 µM
same,CC50,[11],0.155 µM
same,selectivity ratio,[12],14.6
CC(C)CC(CC(=O)NO)C(=O)N[C@H](C(=O)N[C@@H](C)C(=O)NCCN)C(C)(C)C (stereo partly specified),IC50,[1],0.2 µM
CC(C)[C@H](NC(=O)OCc1ccccc1)C(=O)NC(C=O)Cc1ccccc1 (stereo partly drawn) (Cbz-Val-[ξF]-aldehyde),EC50,SARS-CoV [25],0.1 µM
NC(=O)c1ncn([C@@H]2O[C@H](CO)[C@@H](O)[C@H]2O)n1 [RIBAVIRIN],CC50,[8],> 400 µM
CN1CCN(C(=O)N[C@@H](Cc2ccccc2)C(=O)N[C@H](/C=C/S(=O)(=O)c2ccccc2)CCc2ccccc2)CC1 [K-777],IC50,[26],< 0.007 µM
same,IC50,[27],0.046 µM
same,CC50,[28],> 10 µM
C/C(=N\NC(N)=S)c1cccs1,EC50,SARS-CoV [29],6.4 µM
same,CC50,[13],< 100 µM
same,IC50,Procathepsin L [30],5.33 µM
Cc1cccc(C)c1OCC(=O)N[C@@H](Cc1ccccc1)[C@@H](O)C[C@H](Cc1ccccc1)NC(=O)[C@H](C(C)C)N1CCCNC1=O [LOPINAVIR],EC50,SARS-CoV-2 [7],26.1 µM
NC(=O)c1nc(F)cnc1O,CC50,[8],> 400 µM
same,EC50,Zika virus,3.5 µg/mL
same,EC50,Ebolavirus [31],10.5 µg/mL
